Measurements: ChEMBL document CHEMBL1201862, “PubChem BioAssay data set” (2004)
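48-hour exposure; five concentrations; linearly interpolated endpoints. Here, GI50 denotes the concentration required for 50% inhibition of growth.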 Activity calls are given as the source filed them. No stated cut-off is given here; in the data, active = GI50 up to about 1.1 µM and inactive = higher.

Columns and labels:
Test in all cases: inhibition of tumour cell growth, NCI panel, 48 h
T47D = system: T47D
M19-MEL = system: M19-MEL
HOP-18 = system: HOP-18
DMS-114 = system: DMS-114
DLD-1 = system: DLD-1
SNB-78 = system: SNB-78
LXFL 529 = system: LXFL 529
KM-20L2 = system: KM-20L2
RXF 631 = system: RXF 631

SMILES	GI50 (T47D)	GI50 (M19-MEL)	GI50 (DMS-114)	GI50 (DLD-1)	GI50 (SNB-78)	GI50 (LXFL 529)	GI50 (KM-20L2)	further results
COc1ccc(/C=C2\N=C(SC)N(C)C2=O)cc1	42.6 µM (inactive)							
COC1=CC23CCCN2CCc2cc4c(cc2C3C1O)OCO4 (centres undefined)	92.5 µM (inactive)							
CN(C)CCNc1ccc2c(=O)n(CCN(C)C)c(=O)n3c4ccc(O)cc4c(=O)c1c23	< 0.0165 µM (active)							
CCN(CC)CCCn1c(=O)c2ccccc2n2c3c(=O)n(C)c(=O)n(C)c3nc12	17.1 µM (inactive)							
COc1cc2c(OC)c(c1)CCCC1=CC(=O)C=C(CCC2)C1=O	23.2 µM (inactive)							
Cc1cccc2nc3cccc(C(=O)NCCC[N+](C)(CCCNC(=O)c4cccc5nc6cccc(C)c6nc45)Cc4c([N+](=O)[O-])ncn4C)c3nc12	21.9 µM (inactive)							
COc1cc(OCc2ccc3nc(OC)c(OC)nc3c2)cc(OC)c1OC	> 10 µM (inactive)							
C#C[C@@]1(O)CCCC2=CC3(CC[C@]21C)SCCS3	> 100 µM (inactive)							
O=C1C2CC=CCC2C(=O)N1n1c(-c2ccccc2)n[nH]c1=O (centres undefined)	> 100 µM (inactive)							
O=c1[nH]c(C2CCCCC2)nc2c(Cl)cccc12		> 100 µM (inactive)	> 100 µM (inactive)	> 100 µM (inactive)	> 100 µM (inactive)	> 100 µM (inactive)	> 100 µM (inactive)	GI50 (HOP-18): > 100 µM (inactive)
O=C(Nc1ccccc1[N+](=O)[O-])/C(=N/Nc1cccc(Cl)c1)c1c(O)c2ccccc2oc1=O		> 100 µM (inactive)	16.2 µM (inactive)	49.3 µM (inactive)		31 µM (inactive)	> 100 µM (inactive)	GI50 (HOP-18): > 100 µM (inactive)
O=c1[nH]c(=O)n(C2CC(O)C(CO)O2)cc1C(F)(C(F)(F)F)C(F)(F)F (centres undefined)		> 100 µM (inactive)	> 100 µM (inactive)	> 100 µM (inactive)	> 100 µM (inactive)	> 100 µM (inactive)	> 100 µM (inactive)	GI50 (HOP-18): 84.5 µM (inactive)
CCCCN(CC)C(=O)C(=O)Cc1nc2ccc(C(=O)c3ccccc3)cc2nc1O		> 100 µM (inactive)	53.7 µM (inactive)	> 100 µM (inactive)	49.5 µM (inactive)	47.1 µM (inactive)	31.7 µM (inactive)	
O=[N+]([O-])c1ccc(N2CCC(CCCC3CCN(c4ccc([N+](=O)[O-])cc4[N+](=O)[O-])CC3)CC2)c([N+](=O)[O-])c1	5.64 µM (inactive)							
CC(CCCC1SCC2NC(=O)NC21)C(=O)O (centres undefined)	> 100 µM (inactive)							
COC(=O)OCC1OC(N2C(=O)NC(=O)C(I)C2N=[N+]=[N-])CC1OC(=O)OC (centres undefined)		> 100 µM (inactive)		> 100 µM (inactive)	> 100 µM (inactive)	> 100 µM (inactive)	> 100 µM (inactive)	GI50 (RXF 631): > 100 µM (inactive)
CCOC(=O)Nc1nn[nH]c1Cl	> 100 µM (inactive)							
CCOC(=O)/C=C(/C(=O)OCC)n1ccc(=O)n(Cc2cn(CCCCOC(C)=O)nn2)c1=O	> 100 µM (inactive)							
CC(CO)(CO)N1C(=O)C2C3c4ccccc4C(c4ccccc43)C2C1=O (centres undefined)	> 100 µM (inactive)							
O=C1CSc2ccncc2N1		> 100 µM (inactive)	> 100 µM (inactive)	> 100 µM (inactive)		> 100 µM (inactive)	> 100 µM (inactive)	
Cc1ccccc1NC(=O)C(=O)Cc1cnc2ccccc2n1	> 100 µM (inactive)							
COc1nc(NC2OC(COC(C)=O)C(OC(C)=O)C(OC(C)=O)C2OC(C)=O)c2c(OC(C)=O)c(C)c(=O)oc2n1 (centres undefined)		> 100 µM (inactive)	> 100 µM (inactive)	> 100 µM (inactive)	> 100 µM (inactive)	> 100 µM (inactive)	> 100 µM (inactive)	GI50 (HOP-18): > 100 µM (inactive)
COc1ccc2c(c1)C(N)CC2=O (centres undefined)	> 100 µM (inactive)							
Cn1c(=O)c2[nH]cnc2n(CC(=O)O)c1=O		> 100 µM (inactive)	> 100 µM (inactive)	> 100 µM (inactive)	> 100 µM (inactive)	> 100 µM (inactive)	> 100 µM (inactive)	GI50 (RXF 631): > 100 µM (inactive)
C=C(C1=CC(=O)C(C)(C)O1)[C@@H]1CC=C([C@@H]2CC[C@H]3[C@@]2(C)CC[C@H]2C(C)(C)C(=O)[C@H](O)C[C@]32C)[C@H](O)O1	1.44 µM (inactive)							
Nc1nc(NCCO)c(N=O)c(=O)[nH]1		> 100 µM (inactive)	> 100 µM (inactive)	> 100 µM (inactive)	> 100 µM (inactive)	> 100 µM (inactive)	> 100 µM (inactive)	GI50 (HOP-18): > 100 µM (inactive)
COC1CC(OC)C(O)C(CO)O1 (centres undefined)		> 100 µM (inactive)		> 100 µM (inactive)	> 100 µM (inactive)	> 100 µM (inactive)	> 100 µM (inactive)	GI50 (HOP-18): > 100 µM (inactive)
CCN(CC)CCCC(C)NC(=O)c1cc(-c2nccn2C)nc2ccc(C)cc12 (centres undefined)	> 100 µM (inactive)							
O=C(Cc1c(C(=O)Nc2ccccc2)sc(C(=O)Nc2ccccc2)c1CC(=O)Nc1ccccc1)Nc1ccccc1		> 100 µM (inactive)	> 100 µM (inactive)	> 100 µM (inactive)	> 100 µM (inactive)	> 100 µM (inactive)	> 100 µM (inactive)	GI50 (HOP-18): 68.9 µM (inactive)
